Experiment [1] concerns Staphylococcus epidermidis ATCC 35984 (methicillin-resistant). Briefly: Broth microdilution antibacterial assay. Type of experiment: cell-based. The conditions noted are these: ATCC35984, read-out: MIC S. epidermidis ATCC 35984.
For experiment [2], the system named is Pseudomonas aeruginosa PAO1 (chloramphenicol-resistant). As to the kind of experiment: Broth microdilution antibacterial assay. Type of experiment: cell-based. The conditions noted are these: PAO1, read-out: MIC P. aeruginosa PAO1. (In general: Dilution methods test growth across graded concentrations, often in twofold steps.)
Experiment [3] relates to Klebsiella pneumoniae ATCC 10031. Briefly: Broth microdilution antibacterial assay. Type of experiment: cell-based. The following applies: ATCC10031, read-out: MIC K. pneumonia ATCC 10031.
The test system of experiment [4] is Bacillus subtilis 168. Briefly: Broth microdilution antibacterial assay. Type of experiment: cell-based. The conditions noted are these: Bacillus subtilis, 168, read-out: MIC B. subtilis 168.
For experiment [5], the target named is 3CLpro of SARS-CoV-2 (Severe acute respiratory syndrome coronavirus 2, UniProt P0DTD1). As to the kind of experiment: biochemical.

Each structure is given as a SMILES string. Values after ≈ are worked out from the molar mass of the structure shown.

The text below walks through data of article PMC9013261 (Bioorganic Chemistry, 2021).

By MIC is commonly meant the lowest concentration that inhibits growth of the organism. As a reminder, the IC50 is the midpoint of a concentration-inhibition curve.

For `CCCCCCCCCCCc1cc(O)cc(O)c1` [Compound 3, 5-undecyl-1,3-benzenediol], the MIC is 2 mg/L (≈ 7.56 µM) in experiment [1], greater than 64 mg/L in experiment [2], 8 mg/L (≈ 30.3 µM) in experiment [3] and 1 mg/L (≈ 3.78 µM) in experiment [4]. Besides, in experiment [5], the IC50 is greater than 100 µM.

As for `CCCCCCCCCCCCCCc1cc(O)cc(O)c1` [Compound 5, 5-tetradecyl-1,3-benzenediol], the MIC in experiment [1], in experiment [2], in experiment [3] and in experiment [4] was greater than 64 mg/L throughout. The molecule further registered an IC50 in experiment [5] greater than 100 µM.

Consider `CCCCCCCC/C=C\CCCc1cc(O)cc(O)c1` [Compound 7, (Z)-5-(trideca-4-enyl)resorcinol], for which the MIC in experiment [1] was 4 mg/L (≈ 13.8 µM); in experiment [2], greater than 64 mg/L; in experiment [3] it was greater than 64 mg/L; in experiment [4], 1 mg/L (≈ 3.44 µM). This molecule also registered an IC50 in experiment [5] greater than 100 µM.
